Experiments:
Assay in all cases: KINOMEscan competition binding
Details in all cases: compound 10.0 µM
PIK3CA (human) = PIK3CA (human) (UniProt P42336)
NEK7 (human) = NEK7 (human) (UniProt Q8TDX7)
FGR (human) = FGR (human) (UniProt P09769)
ITK (human) = ITK (human) (UniProt Q08881)
PIM1 (human) = PIM1 (human) (UniProt P11309)
NEK2 (human) = NEK2 (human) (UniProt P51955)
CDK2 (human) = CDK2 (human) (UniProt P24941)
MYLK2 (human) = MYLK2 (human) (UniProt Q9H1R3)
RIOK1 (human) = RIOK1 (human) (UniProt Q9BRS2)
CSNK1G2 (human) = CSNK1G2 (human) (UniProt P78368)
Chain of CSNK1G2 (human) (P78368 whole entry, looked up): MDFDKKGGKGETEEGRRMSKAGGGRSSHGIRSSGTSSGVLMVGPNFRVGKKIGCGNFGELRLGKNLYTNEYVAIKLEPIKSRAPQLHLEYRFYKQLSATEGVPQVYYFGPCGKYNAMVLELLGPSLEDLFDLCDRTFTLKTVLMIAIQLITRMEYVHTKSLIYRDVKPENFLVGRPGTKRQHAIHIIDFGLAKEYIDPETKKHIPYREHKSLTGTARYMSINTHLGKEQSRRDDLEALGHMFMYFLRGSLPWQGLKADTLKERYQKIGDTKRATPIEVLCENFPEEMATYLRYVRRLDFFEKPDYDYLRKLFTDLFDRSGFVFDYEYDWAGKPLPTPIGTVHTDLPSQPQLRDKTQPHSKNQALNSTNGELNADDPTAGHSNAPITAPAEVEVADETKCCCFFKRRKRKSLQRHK

PRKCI (human) = PRKCI (human) (UniProt P41743)
Chain of PRKCI (human) (P41743 whole entry, looked up): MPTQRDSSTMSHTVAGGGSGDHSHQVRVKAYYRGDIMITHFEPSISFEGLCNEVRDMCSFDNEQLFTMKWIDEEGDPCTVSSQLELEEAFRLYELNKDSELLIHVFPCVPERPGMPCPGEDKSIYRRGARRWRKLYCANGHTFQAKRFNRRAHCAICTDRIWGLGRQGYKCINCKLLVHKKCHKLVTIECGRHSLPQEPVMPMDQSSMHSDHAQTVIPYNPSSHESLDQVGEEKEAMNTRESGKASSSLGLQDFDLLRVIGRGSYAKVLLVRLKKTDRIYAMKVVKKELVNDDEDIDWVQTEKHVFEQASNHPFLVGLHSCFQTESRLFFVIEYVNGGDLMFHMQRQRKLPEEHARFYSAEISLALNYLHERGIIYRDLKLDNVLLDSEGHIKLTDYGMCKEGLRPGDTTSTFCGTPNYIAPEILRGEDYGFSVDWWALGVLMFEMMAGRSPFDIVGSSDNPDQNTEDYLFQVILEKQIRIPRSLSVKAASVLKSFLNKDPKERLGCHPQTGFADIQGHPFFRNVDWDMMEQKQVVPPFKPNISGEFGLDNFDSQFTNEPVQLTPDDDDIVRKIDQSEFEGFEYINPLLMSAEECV

ERBB2 (human) = ERBB2 (human) (UniProt P04626)
MAP3K3 (human) = MAP3K3 (human) (UniProt Q99759)
Chain of MAP3K3 (human) (Q99759 whole entry, looked up): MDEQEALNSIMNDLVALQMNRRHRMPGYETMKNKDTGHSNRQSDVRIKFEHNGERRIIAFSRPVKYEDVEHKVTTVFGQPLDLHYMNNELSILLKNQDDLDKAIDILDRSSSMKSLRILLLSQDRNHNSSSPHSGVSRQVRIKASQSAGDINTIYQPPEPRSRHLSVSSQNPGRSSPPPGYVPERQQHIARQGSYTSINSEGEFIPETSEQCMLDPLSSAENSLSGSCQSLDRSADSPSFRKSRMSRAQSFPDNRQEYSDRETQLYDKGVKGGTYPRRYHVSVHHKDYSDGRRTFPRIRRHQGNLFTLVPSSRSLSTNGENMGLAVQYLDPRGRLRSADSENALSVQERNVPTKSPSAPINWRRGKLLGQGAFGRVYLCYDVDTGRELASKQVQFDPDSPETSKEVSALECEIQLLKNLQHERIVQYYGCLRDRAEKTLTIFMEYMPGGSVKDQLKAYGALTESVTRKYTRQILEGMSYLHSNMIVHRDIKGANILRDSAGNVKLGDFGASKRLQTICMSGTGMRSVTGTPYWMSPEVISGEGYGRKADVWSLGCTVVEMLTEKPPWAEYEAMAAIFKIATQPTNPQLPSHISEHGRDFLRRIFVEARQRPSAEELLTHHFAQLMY

MET (human) = MET (human) (UniProt P08581)
CDKL1 (human) = CDKL1 (human) (UniProt Q00532)
AAK1 (human) = AAK1 (human) (UniProt Q2M2I8)
ULK1 (human) = ULK1 (human) (UniProt O75385)
CAMK2G (human) = CAMK2G (human) (UniProt Q13555)
Chain of CAMK2G (human) (Q13555 whole entry, looked up): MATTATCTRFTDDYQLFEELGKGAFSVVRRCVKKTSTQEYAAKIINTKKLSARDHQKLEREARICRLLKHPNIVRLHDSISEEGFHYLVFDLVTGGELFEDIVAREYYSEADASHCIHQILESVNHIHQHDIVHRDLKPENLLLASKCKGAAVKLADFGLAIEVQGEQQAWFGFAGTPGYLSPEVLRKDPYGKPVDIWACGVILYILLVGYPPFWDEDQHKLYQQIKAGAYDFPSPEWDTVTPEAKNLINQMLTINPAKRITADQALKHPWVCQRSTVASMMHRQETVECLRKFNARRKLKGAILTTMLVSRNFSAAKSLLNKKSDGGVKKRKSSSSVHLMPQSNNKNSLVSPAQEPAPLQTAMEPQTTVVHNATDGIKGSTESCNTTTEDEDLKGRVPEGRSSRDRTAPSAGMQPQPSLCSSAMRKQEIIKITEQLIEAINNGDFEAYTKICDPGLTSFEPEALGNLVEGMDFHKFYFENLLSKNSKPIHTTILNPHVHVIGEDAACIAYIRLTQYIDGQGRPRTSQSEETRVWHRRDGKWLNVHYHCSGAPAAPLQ

CLK3 (human) = CLK3 (human) (UniProt P49761)
HUNK (human) = HUNK (human) (UniProt P57058)
MAP3K5 (human) = MAP3K5 (human) (UniProt Q99683)
AKT1 (human) = AKT1 (human) (UniProt P31749)
[1] = tested on: PIK3CA (human), P42336 [M1043I]
Chain of PIK3CA (human), P42336 [M1043I] (P42336 whole entry M1043I, looked up): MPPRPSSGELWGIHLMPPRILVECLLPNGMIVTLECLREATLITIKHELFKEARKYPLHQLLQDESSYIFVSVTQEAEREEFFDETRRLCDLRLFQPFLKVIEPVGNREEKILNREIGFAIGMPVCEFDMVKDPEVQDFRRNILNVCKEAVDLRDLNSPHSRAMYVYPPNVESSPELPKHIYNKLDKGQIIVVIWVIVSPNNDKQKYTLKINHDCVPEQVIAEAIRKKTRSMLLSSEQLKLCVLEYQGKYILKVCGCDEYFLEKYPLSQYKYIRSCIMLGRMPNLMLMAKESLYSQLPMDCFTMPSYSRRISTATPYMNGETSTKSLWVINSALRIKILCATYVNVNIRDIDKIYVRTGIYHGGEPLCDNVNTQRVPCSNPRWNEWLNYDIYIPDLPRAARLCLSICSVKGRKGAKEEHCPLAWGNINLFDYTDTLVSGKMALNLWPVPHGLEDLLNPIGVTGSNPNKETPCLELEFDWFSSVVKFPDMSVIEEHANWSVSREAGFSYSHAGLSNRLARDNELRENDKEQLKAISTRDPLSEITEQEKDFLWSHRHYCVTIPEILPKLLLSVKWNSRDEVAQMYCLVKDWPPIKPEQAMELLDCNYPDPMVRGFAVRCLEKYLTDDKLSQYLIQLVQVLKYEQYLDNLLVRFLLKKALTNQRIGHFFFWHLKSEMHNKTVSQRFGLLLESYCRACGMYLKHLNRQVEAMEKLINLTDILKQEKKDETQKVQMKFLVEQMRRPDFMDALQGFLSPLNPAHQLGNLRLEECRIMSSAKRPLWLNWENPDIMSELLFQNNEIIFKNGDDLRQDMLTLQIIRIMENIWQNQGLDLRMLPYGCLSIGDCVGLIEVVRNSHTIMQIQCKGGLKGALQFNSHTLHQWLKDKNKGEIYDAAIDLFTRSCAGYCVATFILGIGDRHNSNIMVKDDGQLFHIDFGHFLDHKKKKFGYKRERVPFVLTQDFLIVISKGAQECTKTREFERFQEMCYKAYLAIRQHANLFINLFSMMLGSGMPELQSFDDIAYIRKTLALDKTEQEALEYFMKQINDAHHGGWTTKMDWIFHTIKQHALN

TLK2 (human) = TLK2 (human) (UniProt Q86UE8)
CDK7 (human) = CDK7 (human) (UniProt P50613)
MAPK9 (human) = MAPK9 (human) (UniProt P45984)
PRKG1 (human) = PRKG1 (human) (UniProt Q13976)
PRKG2 (human) = PRKG2 (human) (UniProt Q13237)
RET (human) = RET (human) (UniProt P07949)
Chain of RET (human) (P07949 whole entry, looked up): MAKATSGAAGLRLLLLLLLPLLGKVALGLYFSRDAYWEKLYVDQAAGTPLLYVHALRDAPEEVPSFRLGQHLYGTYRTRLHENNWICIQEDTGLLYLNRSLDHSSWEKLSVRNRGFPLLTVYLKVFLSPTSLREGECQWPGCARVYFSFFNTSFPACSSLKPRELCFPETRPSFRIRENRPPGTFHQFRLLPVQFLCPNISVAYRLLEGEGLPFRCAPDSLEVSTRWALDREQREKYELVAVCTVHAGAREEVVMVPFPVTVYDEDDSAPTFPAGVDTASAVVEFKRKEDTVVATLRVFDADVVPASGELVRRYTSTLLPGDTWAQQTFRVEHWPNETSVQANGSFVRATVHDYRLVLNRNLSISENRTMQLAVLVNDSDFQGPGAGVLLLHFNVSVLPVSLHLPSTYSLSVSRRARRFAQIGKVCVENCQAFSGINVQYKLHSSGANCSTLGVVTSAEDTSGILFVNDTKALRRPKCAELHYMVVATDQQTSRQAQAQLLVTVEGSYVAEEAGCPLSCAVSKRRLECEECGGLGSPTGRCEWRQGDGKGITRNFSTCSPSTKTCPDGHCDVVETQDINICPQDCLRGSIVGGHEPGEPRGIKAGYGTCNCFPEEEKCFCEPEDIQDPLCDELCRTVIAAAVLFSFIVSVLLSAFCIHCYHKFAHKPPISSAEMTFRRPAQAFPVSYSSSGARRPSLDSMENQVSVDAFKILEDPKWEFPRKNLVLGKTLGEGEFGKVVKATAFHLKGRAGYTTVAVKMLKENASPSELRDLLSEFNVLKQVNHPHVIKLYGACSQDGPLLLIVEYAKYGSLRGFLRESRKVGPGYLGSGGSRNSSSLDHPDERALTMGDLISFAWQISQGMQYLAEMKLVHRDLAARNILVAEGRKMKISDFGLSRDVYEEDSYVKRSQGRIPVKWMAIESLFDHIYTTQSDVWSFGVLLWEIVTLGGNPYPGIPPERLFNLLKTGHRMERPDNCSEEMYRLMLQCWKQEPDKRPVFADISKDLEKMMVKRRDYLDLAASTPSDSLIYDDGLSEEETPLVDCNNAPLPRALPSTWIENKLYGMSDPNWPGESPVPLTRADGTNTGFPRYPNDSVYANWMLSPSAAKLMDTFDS

IRAK3 (human) = IRAK3 (human) (UniProt Q9Y616)
RIPK2 (human) = RIPK2 (human) (UniProt O43353)
CDK9 (human) = CDK9 (human) (UniProt P50750)
PTK2 (human) = PTK2 (human) (UniProt Q05397)
DYRK2 (human) = DYRK2 (human) (UniProt Q92630)
Chain of DYRK2 (human) (Q92630 whole entry, looked up): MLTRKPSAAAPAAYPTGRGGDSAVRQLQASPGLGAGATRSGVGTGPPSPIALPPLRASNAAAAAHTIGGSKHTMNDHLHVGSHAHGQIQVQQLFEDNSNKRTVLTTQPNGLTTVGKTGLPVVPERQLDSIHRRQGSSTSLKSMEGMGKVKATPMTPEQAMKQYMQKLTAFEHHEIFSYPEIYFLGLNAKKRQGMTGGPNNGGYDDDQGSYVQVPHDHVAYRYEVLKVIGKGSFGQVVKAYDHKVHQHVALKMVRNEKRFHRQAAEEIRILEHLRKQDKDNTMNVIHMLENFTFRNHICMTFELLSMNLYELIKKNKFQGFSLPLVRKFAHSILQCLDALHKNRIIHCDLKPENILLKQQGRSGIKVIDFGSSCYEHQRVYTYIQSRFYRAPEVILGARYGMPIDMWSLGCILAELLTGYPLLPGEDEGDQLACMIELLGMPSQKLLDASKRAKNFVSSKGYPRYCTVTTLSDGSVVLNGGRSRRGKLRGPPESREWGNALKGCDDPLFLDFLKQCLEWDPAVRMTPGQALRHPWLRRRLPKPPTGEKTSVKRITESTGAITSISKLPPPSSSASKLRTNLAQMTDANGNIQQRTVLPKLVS

INSRR (human) = INSRR (human) (UniProt P14616)
YES1 (human) = YES1 (human) (UniProt P07947)
PRKCQ (human) = PRKCQ (human) (UniProt Q04759)
YSK4 (human) = YSK4 (human) (UniProt Q56UN5)
NUAK1 (human) = NUAK1 (human) (UniProt O60285)
CDK3 (human) = CDK3 (human) (UniProt Q00526)
TAOK2 (human) = TAOK2 (human) (UniProt Q9UL54)

Chain of PIK3CA (human) (P42336 whole entry, looked up): as the sequence (P42336 whole entry M1043I, looked up) above, with I1043M counted along it

Q: For `CNC(=O)Nc1ccc(-c2nc(N3CC4CCC(C3)O4)c3cnn(C4CCC5(CC4)OCCO5)c3n2)cc1`, which kinase still bound, per cent of control (PIK3CA (human)) is on record?
A: The kinase still bound, per cent of control was 16%.

Q: What about the kinase still bound, per cent of control (NEK7 (human)) of the same compound?
A: The kinase still bound, per cent of control was 100%.

Q: What about the kinase still bound, per cent of control (FGR (human)) of the same compound?
A: The kinase still bound, per cent of control was 100%.

Q: What about the kinase still bound, per cent of control (ITK (human)) of the same compound?
A: The kinase still bound, per cent of control was 88%.

Q: What about the kinase still bound, per cent of control (PIM1 (human)) of the same compound?
A: The kinase still bound, per cent of control was 100%.

Q: What about the kinase still bound, per cent of control (NEK2 (human)) of the same compound?
A: Its kinase still bound, per cent of control is 72%.

Q: What about the kinase still bound, per cent of control (CDK2 (human)) of the same compound?
A: The kinase still bound, per cent of control was 92%.

Q: And the kinase still bound, per cent of control (MYLK2 (human))?
A: The kinase still bound, per cent of control was 100%.

Q: And the kinase still bound, per cent of control (RIOK1 (human))?
A: The kinase still bound, per cent of control was 91%.

Q: What about the kinase still bound, per cent of control (CSNK1G2 (human)) of the same compound?
A: Its kinase still bound, per cent of control is 95%.

Q: And the kinase still bound, per cent of control (PRKCI (human))?
A: The kinase still bound, per cent of control was 67%.

Q: And the kinase still bound, per cent of control (ERBB2 (human))?
A: Its kinase still bound, per cent of control is 88%.

Q: And the kinase still bound, per cent of control (MAP3K3 (human))?
A: Its kinase still bound, per cent of control is 100%.

Q: What about the kinase still bound, per cent of control (MET (human)) of the same compound?
A: Its kinase still bound, per cent of control is 93%.

Q: And the kinase still bound, per cent of control (CDKL1 (human))?
A: Its kinase still bound, per cent of control is 84%.

Q: What about the kinase still bound, per cent of control (AAK1 (human)) of the same compound?
A: Its kinase still bound, per cent of control is 100%.

Q: What about the kinase still bound, per cent of control (ULK1 (human)) of the same compound?
A: The kinase still bound, per cent of control was 100%.

Q: And the kinase still bound, per cent of control (CAMK2G (human))?
A: Its kinase still bound, per cent of control is 100%.

Q: What about the kinase still bound, per cent of control (CLK3 (human)) of the same compound?
A: Its kinase still bound, per cent of control is 31%.

Q: What about the kinase still bound, per cent of control (HUNK (human)) of the same compound?
A: Its kinase still bound, per cent of control is 100%.

Q: And the kinase still bound, per cent of control (MAP3K5 (human))?
A: Its kinase still bound, per cent of control is 85%.

Q: And the kinase still bound, per cent of control (AKT1 (human))?
A: The kinase still bound, per cent of control was 81%.

Q: And the kinase still bound, per cent of control [1]?
A: Its kinase still bound, per cent of control is 4.4%.

Q: And the kinase still bound, per cent of control (TLK2 (human))?
A: The kinase still bound, per cent of control was 100%.

Q: What about the kinase still bound, per cent of control (CDK7 (human)) of the same compound?
A: The kinase still bound, per cent of control was 88%.

Q: What about the kinase still bound, per cent of control (MAPK9 (human)) of the same compound?
A: The kinase still bound, per cent of control was 85%.

Q: And the kinase still bound, per cent of control (PRKG1 (human))?
A: The kinase still bound, per cent of control was 100%.

Q: And the kinase still bound, per cent of control (PRKG2 (human))?
A: Its kinase still bound, per cent of control is 88%.

Q: And the kinase still bound, per cent of control (RET (human))?
A: The kinase still bound, per cent of control was 91%.

Q: What about the kinase still bound, per cent of control (IRAK3 (human)) of the same compound?
A: Its kinase still bound, per cent of control is 100%.

Q: What about the kinase still bound, per cent of control (RIPK2 (human)) of the same compound?
A: Its kinase still bound, per cent of control is 71%.

Q: What about the kinase still bound, per cent of control (CDK9 (human)) of the same compound?
A: The kinase still bound, per cent of control was 100%.

Q: And the kinase still bound, per cent of control (PTK2 (human))?
A: The kinase still bound, per cent of control was 78%.

Q: What about the kinase still bound, per cent of control (DYRK2 (human)) of the same compound?
A: Its kinase still bound, per cent of control is 90%.

Q: And the kinase still bound, per cent of control (INSRR (human))?
A: The kinase still bound, per cent of control was 100%.

Q: And the kinase still bound, per cent of control (YES1 (human))?
A: Its kinase still bound, per cent of control is 97%.

Q: What about the kinase still bound, per cent of control (PRKCQ (human)) of the same compound?
A: The kinase still bound, per cent of control was 100%.

Q: And the kinase still bound, per cent of control (YSK4 (human))?
A: Its kinase still bound, per cent of control is 100%.

Q: What about the kinase still bound, per cent of control (NUAK1 (human)) of the same compound?
A: The kinase still bound, per cent of control was 82%.

Q: And the kinase still bound, per cent of control (CDK3 (human))?
A: Its kinase still bound, per cent of control is 99%.

Q: What about the kinase still bound, per cent of control (TAOK2 (human)) of the same compound?
A: The kinase still bound, per cent of control was 100%.

From the kinase profiling compilation of Christmann-Franck et al. (2016)
